From BigSolDB 2.1

Cc1cnc(C(=O)O)c[n+]1[O-]
solubility (mole fraction)
Conditions | 283.15 K | 288.15 K | 293.15 K | 298.15 K | 303.15 K | 308.15 K | 313.15 K | 318.15 K
in acetone | 0.00157 | 0.00176 | 0.00198 | 0.00222 | 0.00249 | 0.00279 | 0.00317 | 0.00362
in acetonitrile | 0.00057 | 0.000757 | 0.00097 | 0.00118 | 0.00142 | 0.00172 | 0.00205 | 0.00249
in methanol | 0.00211 | 0.00244 | 0.00285 | 0.00328 | 0.00381 | 0.00443 | 0.00517 | 0.00598
in water | 0.00198 | 0.00227 | 0.00265 | 0.0031 | 0.0036 | 0.00426 | 0.00498 | 0.00579
